“And” between values parts separate entries of the source, which are not always exact repeats. Equal entries are not always repeated. Inconclusive results and toxic doses are left out.
System: P388 leukemia ip, CD2F1 mice, survival T/C
Test: NCI In Vivo Anticancer Drug Screen. Data for tumor model P388 Leukemia (intraperitoneal) in CD2F1 (CDF1) mice
Conditions: endpoint: median survival time, higher = longer survival
Summary of the method: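 Mice carrying the transplanted tumor received test compound or vehicle. Survival was recorded in each group, and the value is the treated-group measurement divided by that of the vehicle-treated control group.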

[1] = dose: 12.5 mg/kg/injection, schedule: Q01DX009 (ip), vehicle: other
[2] = dose: 50.0 mg/kg/injection, schedule: Q01DX009 (ip), vehicle: Klucel (hydroxypropylcellulose) (HPC)
[3] = dose: 100.0 mg/kg/injection, schedule: Q01DX009 (ip), vehicle: Klucel (hydroxypropylcellulose) (HPC)
[4] = dose: 50.0 mg/kg/injection, schedule: Q01DX005 (ip), vehicle: saline with Tween-80
[5] = dose: 50.0 mg/kg/injection, schedule: Q01DX009 (ip), vehicle: saline with Tween-80
[6] = dose: 100.0 mg/kg/injection, schedule: Q01DX009 (ip), vehicle: saline with Tween-80
[7] = dose: 200.0 mg/kg/injection, schedule: Q01DX009 (ip), vehicle: saline with Tween-80
[8] = dose: 50.0 mg/kg/injection, schedule: Q01DX005 (ip), vehicle: Klucel (hydroxypropylcellulose) (HPC)
[9] = dose: 100.0 mg/kg/injection, schedule: Q01DX005 (ip), vehicle: Klucel (hydroxypropylcellulose) (HPC)
[10] = dose: 200.0 mg/kg/injection, schedule: Q01DX005 (ip), vehicle: Klucel (hydroxypropylcellulose) (HPC)
[11] = dose: 60.0 mg/kg/injection, schedule: Q01DX005 (ip), vehicle: saline with Tween-80
[12] = dose: 120.0 mg/kg/injection, schedule: Q01DX005 (ip), vehicle: saline with Tween-80
[13] = dose: 240.0 mg/kg/injection, schedule: Q01DX005 (ip), vehicle: saline with Tween-80
[14] = dose: 200.0 mg/kg/injection, schedule: Q01DX009 (ip), vehicle: Klucel (hydroxypropylcellulose) (HPC)
[15] = dose: 400.0 mg/kg/injection, schedule: Q01DX009 (ip), vehicle: saline with Tween-80

CCOC(=O)N1Cc2cc3cc(Cl)ccc3nc2C1
T/C (dose: 3.13 mg/kg/injection, schedule: Q01DX009 (ip), vehicle: saline with Tween-80): 98 % of control | T/C (dose: 6.25 mg/kg/injection, schedule: Q01DX009 (ip), vehicle: saline with Tween-80): 105 % of control | T/C (dose: 8.0 mg/kg/injection, schedule: Q01DX009 (ip), vehicle: saline with Tween-80): 95 % of control | T/C (dose: 12.5 mg/kg/injection, schedule: Q01DX009 (ip), vehicle: saline with Tween-80): 105 % of control | T/C (dose: 16.0 mg/kg/injection, schedule: Q01DX009 (ip), vehicle: saline with Tween-80): 88 % of control | T/C (dose: 25.0 mg/kg/injection, schedule: Q01DX009 (ip), vehicle: saline with Tween-80): 116 % of control | T/C (dose: 32.0 mg/kg/injection, schedule: Q01DX009 (ip), vehicle: saline with Tween-80): 87 % of control | T/C (dose: 64.0 mg/kg/injection, schedule: Q01DX009 (ip), vehicle: saline with Tween-80): 95 % of control | T/C (dose: 128.0 mg/kg/injection, schedule: Q01DX009 (ip), vehicle: saline with Tween-80): 100 % of control

COc1ccc(-c2cc(=O)c3ccc4cc(OC)c(OC)cc4c3o2)cc1
T/C [1]: 91 % of control | T/C (dose: 100.0 mg/kg/injection, schedule: Q01DX009 (ip), vehicle: other): 88 % of control | T/C (dose: 200.0 mg/kg/injection, schedule: Q01DX009 (ip), vehicle: other): 91 % of control

O=c1[nH]c2ccccc2cc1CBr
T/C (dose: 50.0 mg/kg/injection, schedule: Q04DX002 (ip), vehicle: Klucel (hydroxypropylcellulose) (HPC)): 95 % of control | T/C (dose: 100.0 mg/kg/injection, schedule: Q04DX002 (ip), vehicle: Klucel (hydroxypropylcellulose) (HPC)): 102 % of control and 104 % of control | T/C (dose: 400.0 mg/kg/injection, schedule: Q04DX002 (ip), vehicle: Klucel (hydroxypropylcellulose) (HPC)): 96 % of control

CNc1ccc(F)cc1SSc1cc(F)ccc1NC
T/C (dose: 25.0 mg/kg/injection, schedule: Q01DX009 (ip), vehicle: Klucel (hydroxypropylcellulose) (HPC)): 108 % of control | T/C [2]: 110 % of control | T/C [3]: 115 % of control

COC(=O)C(CC(C)C)NC(=O)C(Cc1c[nH]c2ccccc12)NC(=O)OC(C)(C)C (stereo not given)
T/C (dose: 10.7 mg/kg/injection, schedule: Q01DX009 (ip), vehicle: other): 100 % of control | T/C (dose: 21.3 mg/kg/injection, schedule: Q01DX009 (ip), vehicle: other): 93 % of control | T/C (dose: 42.5 mg/kg/injection, schedule: Q01DX009 (ip), vehicle: other): 93 % of control | T/C (dose: 85.0 mg/kg/injection, schedule: Q01DX009 (ip), vehicle: other): 93 % of control | T/C (dose: 170.0 mg/kg/injection, schedule: Q01DX009 (ip), vehicle: other): 98 % of control

O=C(N/N=C/c1ccco1)C(=O)Nc1ccc(Cl)c([N+](=O)[O-])c1
T/C [4]: 91 % of control | T/C (dose: 100.0 mg/kg/injection, schedule: Q01DX005 (ip), vehicle: saline with Tween-80): 89 % of control | T/C (dose: 200.0 mg/kg/injection, schedule: Q01DX005 (ip), vehicle: saline with Tween-80): 105 % of control

COc1ccc(Cl)cc1NC(=O)NNC(=O)C(=O)NC1CC1
T/C [5]: 100 % of control | T/C [6]: 97 % of control | T/C [7]: 102 % of control

COc1cc(N(C)C)c(OC)cc1/C=C\c1ccnc2ccccc12
T/C (dose: 100.0 mg/kg/injection, schedule: Q04DX003 (ip), vehicle: saline with Tween-80): 111 % of control

Cc1ccc(S(=O)(=O)NC(=O)n2ccnc2C)cc1
T/C [8]: 97 % of control | T/C [9]: 100 % of control | T/C [10]: 104 % of control

O=C(NC(Cc1cn(Cc2ccccc2)cn1)C(=O)O)OCC1c2ccccc2-c2ccccc21 (stereo not given)
T/C [8]: 104 % of control | T/C [9]: 98 % of control | T/C [10]: 99 % of control

O=C(O)c1cccc(C(=O)O)c1O
T/C (dose: 50.0 mg/kg/injection, schedule: Q01DX001 (ip), vehicle: saline with Tween-80): 102 % of control | T/C [5]: 100 % of control | T/C (dose: 100.0 mg/kg/injection, schedule: Q01DX001 (ip), vehicle: saline with Tween-80): 105 % of control | T/C [6]: 103 % of control | T/C (dose: 200.0 mg/kg/injection, schedule: Q01DX001 (ip), vehicle: saline with Tween-80): 110 % of control | T/C [7]: 94 % of control

COC(=O)[C@@H]1c2cc3c(c(O)c2[C@@H](OC)C[C@@]1(C)O)C(=O)c1c(O)cc2c(c1C3=O)OC1O[C@@]2(C)[C@H](O)[C@@H](N(C)C)[C@@H]1O
T/C (dose: 6.25 mg/kg/injection, schedule: Q01DX010 (ip), vehicle: saline): 110 % of control | T/C [1]: 171 % of control | T/C (dose: 12.5 mg/kg/injection, schedule: Q01DX009 (ip), vehicle: saline): 156 % of control | T/C (dose: 12.5 mg/kg/injection, schedule: Q01DX010 (ip), vehicle: saline): 110 % of control | T/C (dose: 25.0 mg/kg/injection, schedule: Q01DX009 (ip), vehicle: other): 176 % of control | T/C (dose: 25.0 mg/kg/injection, schedule: Q01DX009 (ip), vehicle: saline): 159 % of control | T/C (dose: 25.0 mg/kg/injection, schedule: Q01DX010 (ip), vehicle: saline): 120 % of control | T/C (dose: 50.0 mg/kg/injection, schedule: Q01DX009 (ip), vehicle: other): 171 % of control | T/C (dose: 50.0 mg/kg/injection, schedule: Q01DX009 (ip), vehicle: saline): 98 % of control | T/C (dose: 50.0 mg/kg/injection, schedule: Q01DX010 (ip), vehicle: saline): 110 % of control | T/C (dose: 50.0 mg/kg/injection, schedule: Q04DX003 (ip), vehicle: other): 153 % of control | T/C (dose: 50.0 mg/kg/injection, schedule: Q04DX003 (ip), vehicle: saline): 150 % of control | T/C (dose: 100.0 mg/kg/injection, schedule: Q04DX003 (ip), vehicle: other): 158 % of control | T/C (dose: 100.0 mg/kg/injection, schedule: Q04DX003 (ip), vehicle: saline): 150 % of control

CC(C)(C)c1ccc(C(C)(C)C)c(N2C(=O)c3ccc4c5ccc6c7c(ccc(c8ccc(c3c48)C2=O)c75)C(=O)N(c2cc(C(C)(C)C)ccc2C(C)(C)C)C6=O)c1
T/C [11]: 95 % of control | T/C [12]: 90 % of control | T/C [13]: 99 % of control

COCCOCCOCCOCCn1cc(F)c(=O)[nH]c1=O
T/C (dose: 50.0 mg/kg/injection, schedule: Q04DX002 (ip), vehicle: saline): 104 % of control | T/C (dose: 100.0 mg/kg/injection, schedule: Q04DX002 (ip), vehicle: saline): 94 % of control | T/C (dose: 200.0 mg/kg/injection, schedule: Q04DX002 (ip), vehicle: saline): 100 % of control | T/C (dose: 400.0 mg/kg/injection, schedule: Q04DX002 (ip), vehicle: saline): 94 % of control

CCN(CC)CCCNc1cc(OC)c(Nc2ccccc2)c2cccnc12
T/C (dose: 3.12 mg/kg/injection, schedule: Q01DX005 (ip), vehicle: suspension in saline): 112 % of control | T/C (dose: 6.25 mg/kg/injection, schedule: Q01DX005 (ip), vehicle: suspension in saline): 100 % of control | T/C (dose: 12.5 mg/kg/injection, schedule: Q01DX005 (ip), vehicle: suspension in saline): 99 % of control

O=Cc1ccc(COCCO)o1
T/C [11]: 105 % of control | T/C [12]: 102 % of control | T/C [13]: 102 % of control

CN(C)c1ccc(/C=C/c2ccnc3c(O)cccc23)cc1
T/C [2]: 113 % of control | T/C [3]: 104 % of control | T/C [14]: 95 % of control

Nc1n[nH]c(=S)n1-c1ccc(Cl)cc1
T/C [6]: 115 % of control | T/C [7]: 120 % of control | T/C [15]: 120 % of control

O=[N+]([O-])c1ccc(N/N=C\C2OC3O[C@@H](C(Cl)(Cl)Cl)OC3C2O)c([N+](=O)[O-])c1 (stereo not given in full)
T/C (dose: 200.0 mg/kg/injection, schedule: Q04DX002 (ip), vehicle: saline with Tween-80): 87 % of control

CC(=NCc1ccccc1)c1ccccc1O
T/C [2]: 99 % of control | T/C [5]: 106 % of control | T/C [3]: 93 % of control | T/C [6]: 116 % of control | T/C [14]: 92 % of control | T/C [7]: 98 % of control | T/C [15]: 109 % of control

C/C(=N\NC(=S)N1CC2CCC(CC2)C1)c1nccs1
T/C (dose: 12.5 mg/kg/injection, schedule: Q01DX005 (ip), vehicle: saline with Tween-80): 124 % of control | T/C [4]: 154 % of control

— PubChem BioAssay AID330 (DTP/NCI, 2004)
